Test [1] relates to HCMV (strain AD169). The experiment in a line: Inhibition of HCMV replication, ELISA assay (Hs-68 cells, p28). The class given is cell-based, human cytomegalovirus. The following applies: Group 1 Table 1; read-out: ELISA CMV EC50. As to the method:
(§1) C) Inhibition of Human Cytomegalovirus (HCMV) replication
(§2) The effect of compounds on the replication of HCMV has been measured by using an ELISA-based assay (ELISA) and a plaque reduction assay (PRA).
Hs-68 cells (ATCC # CRL 1635) were seeded in 96 well microtiter plates at 10,000 cells/well in 100 μL of DMEM medium (Gibco Canada Inc.) supplemented with 10% fetal bovine serum (FBS, Gibco Canada Inc.). The plates were incubated for 3 days at 37° to allow the cells to reach 80-90% confluency prior to the assay.
The medium was removed from wells by aspiration. The cells then were infected at a multiplicity of infection (MOI) of 0.01 PFU/cell with 50 μL of HCMV (strain AD169, ATCC VR-538) in DMEM medium supplemented with 5% heat inactivated FBS (assay medium). The virus was allowed to adsorb to cells for 2 h at 37°. Following viral adsorption, the medium was removed from the wells by aspiration. The cells were washed twice with 200 μL of assay medium to remove unabsorbed virus. The cells were then incubated with or without 100 μL of appropriate concentrations of test reagent in assay medium. After 8 days of incubation at 37°, the extent of viral replication was determined by an ELISA assay which detects the late structural protein p28 of HCMV.
Eight days after infection, the medium was aspirated from the wells. Non-specific binding sites were blocked by adding 200 μL of phosphate buffered saline containing 1% (w/v) bovine serum albumin (blocking buffer) to each well and incubating the plates for 30 min at room temperature. After removal of the blocking buffer by aspiration, the cells were fixed with 100 μL of cold ethanol-acetone solution (95:5) per well. The plates were placed at −20° for 30 min. The plates were washed 4 times with phosphate buffered saline containing 0.05% (v/v) polyoxyethylene sorbitan monolaurate (Tween 20®). Thereafter, 100 μL of mAb UL99 (Advanced Biotechnologies Inc., #13-130-100) recognizing HCMV protein p28 was added to each wells and plates were incubated for 2 h at room temperature. The plates were washed four times with 200 μL of the above-noted phosphate buffered saline/Tween-20® solution. The cells were then incubated with 100 μL of sheep anti-mouse IgGγ horseradish peroxidase conjugated for 2 h at room temperature. The plates were then washed four times with 200 μL of above-noted phosphate buffered saline/Tween-20®solution. Thereafter, 100 μL of ortho phenylenediamine dihydrochloride (OPD, Gibco Canada Inc.) solution was added to each well and the plates were agitated on a microplate shaker for 30 min in the dark. Color development was monitored at 450 nm using a microplate spectrophotometer.
The SAS program was used to calculate the % inhibition of viral replication and to generate EC50 values.
The EC50 values obtained according to this assay method for certain thiazolylphenyl derivatives of this invention are listed in the following tables under the heading ELISA CMV.
In general terms: An ELISA detects its analyte on a solid surface through an enzyme-linked reagent.

A further test deals with T1, HSV-1 helicase-primase (Human herpesvirus 1, UniProt P10189+P10236).
T1 construct: made in house; host or cells: Sf21 insect cells triply infected with recombinant baculoviruses
T1 sequence (P10189 whole entry): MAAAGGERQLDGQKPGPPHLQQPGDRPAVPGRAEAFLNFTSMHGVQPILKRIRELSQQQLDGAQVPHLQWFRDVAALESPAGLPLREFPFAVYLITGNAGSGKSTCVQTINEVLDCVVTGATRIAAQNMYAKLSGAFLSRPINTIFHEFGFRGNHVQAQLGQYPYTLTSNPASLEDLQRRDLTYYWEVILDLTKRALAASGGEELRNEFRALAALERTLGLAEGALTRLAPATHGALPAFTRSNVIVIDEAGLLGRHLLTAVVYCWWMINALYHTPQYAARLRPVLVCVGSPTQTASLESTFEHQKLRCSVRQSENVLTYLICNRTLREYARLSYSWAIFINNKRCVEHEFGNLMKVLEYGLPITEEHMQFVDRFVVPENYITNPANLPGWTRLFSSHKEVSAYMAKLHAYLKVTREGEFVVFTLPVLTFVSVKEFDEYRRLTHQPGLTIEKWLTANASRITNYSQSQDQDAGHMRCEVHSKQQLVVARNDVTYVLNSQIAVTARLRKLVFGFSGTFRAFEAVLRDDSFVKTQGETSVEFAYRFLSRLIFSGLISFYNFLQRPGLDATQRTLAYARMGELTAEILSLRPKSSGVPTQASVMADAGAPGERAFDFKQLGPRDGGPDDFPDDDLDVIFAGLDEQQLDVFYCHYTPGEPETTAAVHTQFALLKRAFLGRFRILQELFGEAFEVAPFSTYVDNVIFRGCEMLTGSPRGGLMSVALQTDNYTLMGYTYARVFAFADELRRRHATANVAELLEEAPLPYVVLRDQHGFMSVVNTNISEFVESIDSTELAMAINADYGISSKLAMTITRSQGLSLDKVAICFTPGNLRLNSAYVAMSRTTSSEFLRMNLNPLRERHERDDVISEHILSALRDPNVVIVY
T1 sequence (P10192 whole entry, further chain): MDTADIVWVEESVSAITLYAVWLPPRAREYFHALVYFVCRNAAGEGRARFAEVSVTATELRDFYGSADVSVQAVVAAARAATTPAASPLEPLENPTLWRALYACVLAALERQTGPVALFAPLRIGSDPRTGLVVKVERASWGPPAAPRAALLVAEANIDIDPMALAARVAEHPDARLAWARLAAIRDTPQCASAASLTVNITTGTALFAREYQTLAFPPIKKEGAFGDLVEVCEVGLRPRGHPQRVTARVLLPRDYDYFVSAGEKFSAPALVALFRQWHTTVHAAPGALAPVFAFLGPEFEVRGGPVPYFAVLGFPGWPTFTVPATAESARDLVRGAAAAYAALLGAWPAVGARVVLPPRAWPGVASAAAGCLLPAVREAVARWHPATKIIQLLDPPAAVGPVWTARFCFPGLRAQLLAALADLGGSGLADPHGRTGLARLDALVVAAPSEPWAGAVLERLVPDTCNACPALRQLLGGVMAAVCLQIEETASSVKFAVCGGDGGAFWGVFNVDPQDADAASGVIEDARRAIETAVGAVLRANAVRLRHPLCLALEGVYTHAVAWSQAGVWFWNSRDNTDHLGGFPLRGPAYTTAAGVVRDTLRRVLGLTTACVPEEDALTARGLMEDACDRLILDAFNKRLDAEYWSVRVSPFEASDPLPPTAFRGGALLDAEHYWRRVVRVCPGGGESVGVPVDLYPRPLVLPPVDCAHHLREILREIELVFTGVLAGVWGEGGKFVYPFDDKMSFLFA
T1 sequence (P10236 whole entry): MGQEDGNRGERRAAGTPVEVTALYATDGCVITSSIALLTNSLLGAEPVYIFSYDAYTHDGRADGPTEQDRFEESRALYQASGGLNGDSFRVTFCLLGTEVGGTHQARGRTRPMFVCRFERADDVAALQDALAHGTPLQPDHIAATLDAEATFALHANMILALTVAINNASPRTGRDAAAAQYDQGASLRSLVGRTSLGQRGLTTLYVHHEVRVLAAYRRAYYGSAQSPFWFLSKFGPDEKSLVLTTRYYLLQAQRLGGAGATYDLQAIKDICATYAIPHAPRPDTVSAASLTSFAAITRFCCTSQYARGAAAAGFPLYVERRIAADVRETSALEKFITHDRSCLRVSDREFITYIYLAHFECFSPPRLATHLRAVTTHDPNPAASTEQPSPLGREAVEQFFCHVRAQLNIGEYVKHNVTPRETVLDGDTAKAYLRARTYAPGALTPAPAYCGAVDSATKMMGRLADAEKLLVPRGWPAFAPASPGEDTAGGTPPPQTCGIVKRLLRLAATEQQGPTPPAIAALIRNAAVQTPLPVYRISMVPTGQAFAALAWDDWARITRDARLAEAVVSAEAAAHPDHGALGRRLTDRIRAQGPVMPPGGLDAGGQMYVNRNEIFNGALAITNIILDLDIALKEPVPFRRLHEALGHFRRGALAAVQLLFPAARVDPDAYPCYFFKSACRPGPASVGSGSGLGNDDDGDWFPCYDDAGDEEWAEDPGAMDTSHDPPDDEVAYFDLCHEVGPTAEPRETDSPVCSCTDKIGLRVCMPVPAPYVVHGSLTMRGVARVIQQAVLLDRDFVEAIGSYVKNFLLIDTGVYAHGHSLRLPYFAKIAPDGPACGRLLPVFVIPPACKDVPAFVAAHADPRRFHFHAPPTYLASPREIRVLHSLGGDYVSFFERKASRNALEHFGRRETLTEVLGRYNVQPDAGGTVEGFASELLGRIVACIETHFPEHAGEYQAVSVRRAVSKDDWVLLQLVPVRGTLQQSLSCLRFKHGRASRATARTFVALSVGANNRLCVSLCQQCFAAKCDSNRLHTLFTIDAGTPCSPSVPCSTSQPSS
The experiment in a line: HSV-1 DNA-dependent ATPase assay (inhibition of HSV-1 helicase-primase). Type of test: biochemical. The following applies: Group 1 Table 1. The source says: A) HSV-1 DNA-Dependent ATP Assay (an in Vitro Assay Based on the Inhibition of HSV-1 Helicase-primase).
a) Preparation of enzyme: HSV-1 helicase-primase holoenzyme was produced in triply infected Sf21 cells using recombinant baculoviruses expressing the UL5, UL8 and UL52 helicase-primase subunits, as described by S. Dracheva et al., J. Biol. Chem. 1995, 270, 14148. The crude enzyme was purified by ammonium sulfate precipitation, Source 15Q® chromatography and Sephacryl® S-300 HR gel filtration (both purification systems can be obtained from Pharmacia Biotech Inc., Montreal, Quebec, Canada), see S. Dracheva et al., supra.
b) Assay: The DNA-dependent ATPase assay, described by J. J. Crute et al., Nucleic Acids Res. 1988, 16, 6585, was modified and used to evaluate the capability of the compounds of Group 1-formula 1 to inhibit HSV-1 helicase-primase activity. The reaction mixtures (80 μL each) contained 40 mM 4-(2-hydroxyethyl)-1-piperazineethanesulfonic acid (HEPES, pH 7.5), 10% (v/v) glycerol, 5.5 mM MgCl2, 1 mM DL-dithiothreitol (DTT), 50 μg/mL acetylated bovine serum albumin, 3.3% (v/v) DMSO, 4 mM ATP, 25 μM single-stranded M13 DNA hybridized to double-tailed 68-mer oligonucleotide and 3 μg/mL HSV-1 helicase-primase. After incubation for 20 min at 34°, formation of inorganic phosphate from hydrolysis of ATP was monitored spectrophotometrically at 650 nm using acidic ammonium molybdate/malachite green reagent, P. A. Lanzetta et al., Anal. Biochem. 1979, 100, 95. DNA-dependent ATPase activity was calculated from the net absorbance change in the presence and absence of inhibition.

In a further test the test system is HSV-1 strain F or KOS. The experiment in a line: Inhibition of herpes simplex virus (HSV-1) replication in cell culture (BHK-21 cells, glycoprotein C ELISA). Type of test: cell-based. The following applies: Group 1 Table 1. As for the experimental part: B) Inhibition of Herpes Simplex Virus (HSV-1) Replication in Cell Culture
Assay: BHK-21 cells clone 13 (ATCC CCL10) were incubated for two days in 850 cm^2 roller bottles (2×10^7 cells/bottle) with α-MEM medium (Gibco Canada Inc., Burlington, Ontario, Canada) supplemented with 8% (v/v) fetal bovine serum (FBS, Gibco Canada, Inc.). The cells were trypsinized and then 3,000 cells in 100 μL of fresh medium were transferred into each well of a 96-well microtiter plate. The cells were incubated at 37° for a period of 3 days to reach a density of 50,000 cells per well. The cells were washed twice with 100 μL of α-MEM supplemented with 2% heat inactivated FBS and incubated for 1-2 hours in 100 μL of the same medium.
Thereafter, the cells were infected with HSV-1 strain F or KOS (multiplicity of infection=0.05 PFU/cell) in 50 μL of α-MEM supplemented with 2% heat inactivated FBS. Following one hour of virus absorption at 37°, the medium was removed and the cells were washed with α-MEM supplemented with 2% heat inactivated FBS (2×100 μL). The cells were incubated with or without 100 μL of the appropriate concentration of test reagent in α-MEM medium supplemented with 2% heat inactivated FBS. After 24 hours of incubation at 37°, the extent of viral replication was determined by an ELISA assay; for instance, the following assay that detects the late glycoprotein C of HSV-1.
Cells were fixed in the microtiter plate with 100 μL of 0.063% glutaraldehyde in phosphate buffered saline for 30 min at room temperature. The microtiter plate was then washed once with casein blocking solution and blocked with 200 μL of the same solution for one hour at room temperature. Thereafter, 100 μL of mAb C11 recognizing the glycoprotein C of HSV-1 (see E. Trybala et al., Journal of General Virology, 1994, 75, 743) was added to each well for two hours at room temperature. The plate was washed three times with phosphate buffered saline containing 0.05% polyoxyethylene (20) sorbitan monooleate. The cells were incubated with 100 μL of sheep anti-mouse IgG horseradish peroxidase for one hour at room temperature in the dark.
The plate was washed three times with 200 μL of the above-noted phosphate buffer saline preparation, and then once with 0.1 M sodium citrate (pH 4.5). Thereafter, 100 μL of orthophenylenediamine dihydrochloride (OPD, Gibco, Canada Inc.) was added to each well. The plate was agitated on a microplate shaker for 30 min in the dark. Color development was monitored at 450 nm using a microplate spectrophotometer.
SAS was used to calculate % inhibition of viral replication and to generate EC50 values.

In test [2] the test system is HCMV (strain AD169). The experiment in a line: Inhibition of HCMV replication, plaque reduction assay (PRA, Hs-68 cells). The class given is cell-based, human cytomegalovirus. As to conditions: Group 1 Table 1; read-out: PRA CMV EC50. As for the experimental part:
as §1, §2
Hs-68 cells ( ATCC # CRL 1635) were seeded in 12-well plates at 83,000 cells/well in 1 mL of DMEM medium (Gibco Canada Inc.) supplemented with 10% fetal bovine serum (FBS, Gibco Canada Inc.). The plates were incubated for 3 days at 37° to allow the cells to reach 80-90% confluency prior to the assay.
The medium was removed from the cells by aspiration. The cells were then infected with approximately 50 PFU of HCMV (strain AD169, ATCC VR-538) in DMEM medium supplemented with 5% inactivated FBS (assay medium). The virus was allowed to adsorb to cells for 2 h at 37°. Following viral adsorption, the medium was removed from the wells by aspiration. The cells were then incubated with or without 1 mL of appropriate concentrations of test reagent in assay medium. After 4 days of incubation at 37°, the medium was exchanged with fresh medium containing test compound and 4 days later the cells were fixed with 1% aqueous formaldehyde and stained with a 2% crystal violet solution in 20% ethanol in water. Microscopic plaques were counted using a stereomicroscope. Drug effects were calculated as a percent reduction in the number of plaques in the presence of each drug concentration compared to the number observed in the absence of drug. Ganciclovir was used as a positive control in all experiments.
The EC50 values obtained according to this assay for certain thiazolyl derivatives of this invention are listed in the following tables under the heading PRA CMV.
(Plaques are areas of infected cells; plaque reduction assays count them against a control.)

Test [3] has as its system HSV-1 acyclovir-resistant mutant strain PAA^r5. The experiment in a line: Acyclovir-resistant HSV-1 PAAr5 cutaneous infection in immunodeficient nu/nu mice, oral. Type of test: in vivo. The following applies: 100 mg/kg/day oral, tid for 10 days (FIG. 1). As to the method: (§3) Animals were cutaneously inoculated with 10^7 PFU of HSV-1 acyclovir resistant mutant viruses. The resulting cutaneous lesions were scored according to a subjective scoring system. The compound of Group 1 (Entry No. 29 in table 1) was administered orally (gavage) in an acidified vehicle (0.033 N aqueous HCl, tid for 10 days). Animals were similarly treated with acyclovir in 0.033 N aqueous HCl or only with the vehicle (0.033 N aqueous HCl). […] The dose-dependent effect of treatment with Entry No. 29 at 25 mg/kg/day (-♦-), 50 mg/kg/day (-▴-), 75 mg/kg/day (-□-), 100 mg/kg/day (-●-) or 125 mg/kg/day (-▪-), compared to treatment with vehicle alone (-∘-), is shown in FIG. 2. The ED50 of Entry No. 29 was about 60 mg/kg/day. Similar experiments were done using the HSV-1 acyclovir-resistant mutant strain dlsptk (FIGS. 3 and 4). […] The dose-dependent effect of treatment with Entry No. 29 at 25 mg/kg/day (-♦-), 50 mg/kg/day (▴-), 75 mg/kg/day (-□-), 100 mg/kg/day (-●-) or 125 mg/kg/day (-▪-), compared to treatment with vehicle alone (-∘-), is shown in FIG. 4. The acyclovir-resistant HSV-1 strains, PAA^r5 and dlsptk, have been described by P. A. Furman et al., J. Virol., 1981, 40, 936 and by D. M. Coen et al., Proc. Natl. Acad. Sci., 1989, 86, 4736, respectively.

Test [4] concerns HSV-1 acyclovir-resistant mutant strain dlsptk. The experiment in a line: Acyclovir-resistant HSV-1 dlsptk cutaneous infection in immunodeficient nu/nu mice, oral. The class given is in vivo. The following applies: 100 mg/kg/day oral, tid for 10 days (FIG. 3). As for the experimental part: as §3

The values that follow come from patent publication US6348477B1, “Anti-herpesvirus compounds and methods for identifying, making and using same” (Boehringer Ingelheim(Canada) Ltd., priority 1995, dated 2002).

The structures appear in SMILES notation. Bounds are passed on as bounds.

What is called EC50 is the concentration needed to bring the measured effect to its halfway point. Usually IC50 stands for the concentration that gives 50% inhibition. Read a low IC50 as inhibition by little substance. With `CC(c1ccccc1)N(CC(=O)Nc1ccc(-c2csc(N)n2)cc1)C(=O)C1CCCCC1` (stereo not drawn) [Example 52], the EC50 in the test with HCMV (strain AD169) [1] came to 1.3 µM; in the test on HSV-1 strain F or KOS, 0.013 µM; in the test on HCMV (strain AD169) [2], 6 µM. The compound further had an IC50 on HSV-1 helicase-primase of 0.087 µM.
For `CC(c1ccccc1)N(CC(=O)Nc1ccc(-c2csc(N)n2)cc1)C(=O)C1CCCCC1` (stereo not drawn) [Example 53] the same measures were 3.2 µM, 0.003 µM, 12 µM and 0.038 µM.
For `Nc1nc(-c2ccc(NC(=O)CN(CC3CCCCC3)C(=O)c3cccnc3)cc2)cs1` [Example 64] the same measures were 0.75 µM, 1.7 µM, 20 µM and 2.5 µM.
For the compound `CC(c1ccccc1)N(CC(=O)Nc1ccc(-c2csc(N)n2)cc1)C(=O)OC(C)(C)C` (stereo not drawn) [Example 88], the EC50 in the test with HCMV (strain AD169) [1] was greater than 47 µM; in the test on HSV-1 strain F or KOS, 1.2 µM. This compound also displayed an IC50 on HSV-1 helicase-primase of 2.4 µM.
In the case of `CC(c1ccccc1)N(CC(=O)Nc1ccc(-c2csc(N)n2)cc1)C(=O)OC(C)(C)C` (stereo not drawn) [Example 89], the EC50 turned out to be 0.9 µM with HCMV (strain AD169) [1], 0.036 µM in the test on HSV-1 strain F or KOS and 38 µM with HCMV (strain AD169) [2]. The compound also came in with an IC50 against HSV-1 helicase-primase of 0.098 µM.
For `Nc1nc2c(ncn2COCCO)c(=O)[nH]1` [acyclovir], the “effect on cutaneous lesions” value in test [3] and in test [4] was “no effect” throughout.
